Data taken from the Kinase Knowledgebase extract (Sharma et al. 2016).

molecular target: PIK3CB;PIK3CG;PIK3CD;PIK3CA (human) (UniProt P48736); assay: Enzyme Assay

Row | Compound | IC50
1 | O=C(c1nn(-c2ccc(Cl)cc2)c2c1CS(=O)(=O)c1ccccc1-2)N1CCOCC1 | 895 nM
2 | O=C(c1nn(-c2cccc(CO)c2)c2c1CS(=O)(=O)c1ccccc1-2)N1CCOCC1 | 2250 nM
3 | CNCc1ccc(-n2nc(C(=O)N3CCOCC3)c3c2-c2ccccc2S(=O)(=O)C3)cc1 | 226 nM
4 | CN(C)Cc1cccc(-n2nc(C(=O)N3CCOCC3)c3c2-c2ccccc2S(=O)(=O)C3)c1 | 1110 nM
5 | O=C(c1nn([C@@H]2CCN(CCN3CCC(F)CC3)C2)c2c1CS(=O)(=O)c1ccccc1-2)N1CCOCC1 | 3690 nM
6 | O=C(c1nn(CCCO)c2c1CS(=O)(=O)c1ccccc1-2)N1CCOCC1 | 2250 nM
7 | COC1CCN(Cc2ccc(-n3nc(C(=O)N4CCOCC4)c4c3-c3ccccc3S(=O)(=O)C4)cc2)CC1 | 249 nM
8 | O=C(c1nn([C@H]2CCCN(CCN3CC(F)(F)C3)C2)c2c1CS(=O)(=O)c1ccccc1-2)N1CCOCC1 | 17 nM
9 | O=C(c1nn([C@H]2CCCN(C3CCOCC3)C2)c2c1CS(=O)(=O)c1c(F)cccc1-2)N1CCOCC1 | 13 nM
10 | COCCCn1nc(C(=O)N2CCOCC2)c2c1-c1ccccc1S(=O)(=O)C2 | 907 nM
11 | CC1(C)CN(Cc2ccc(-n3nc(C(=O)N4CCOCC4)c4c3-c3ccccc3S(=O)(=O)C4)cc2)CCO1 | 120 nM
12 | O=C(c1nn([C@H]2CCCNC2)c2c1CS(=O)(=O)c1ccccc1-2)N1CCOCC1 | 1060 nM
13 | NCc1ccc(-n2nc(C(=O)N3CCOCC3)c3c2-c2ccccc2S(=O)(=O)C3)cc1 | 349 nM
14 | O=C(c1nn(-c2ccc(-c3ccccc3)cc2)c2c1CS(=O)(=O)c1ccccc1-2)N1CCOCC1 | 10300 nM
15 | COCCN1CCCC(n2nc(C(=O)N3CCOCC3)c3c2-c2ccccc2S(=O)(=O)C3)CC1 (stereo not drawn) | 478 nM
16 | O=C(c1nn(-c2ccccc2)c2c1CS(=O)(=O)c1ccc(Br)cc1-2)N1CCOCC1 | 1300 nM
17 | O=C(c1nn([C@H]2CCCN(CCN3CCC(O)CC3)C2)c2c1CS(=O)(=O)c1ccccc1-2)N1CCOCC1 | 18 nM
18 | O=C(NC1CCOCC1)c1cccc(-n2nc(C(=O)N3CCOCC3)c3c2-c2ccccc2S(=O)(=O)C3)c1 | 1260 nM
19 | Cn1nc(C(=O)N2CCOCC2)c2c1-c1cccc(F)c1S(=O)(=O)C2 | 687 nM
20 | CC(C)(c1ccc(-n2nc(C(=O)N3CCOCC3)c3c2-c2ccccc2S(=O)(=O)C3)cc1)N1CCOCC1 | 584 nM
21 | CC1COCCN1C(=O)c1nn(-c2ccccc2)c2c1CS(=O)(=O)c1ccccc1-2 (stereo not drawn) | 13900 nM
22 | CN1c2c(C(=O)N3CCOCC3)nn(-c3ccccc3)c2-c2ccccc2S1(=O)=O | 3460 nM

Row | Compound | IC50
23 | O=C(c1nn(C2CCN(CCC3CCOCC3)C2)c2c1CS(=O)(=O)c1c(F)cccc1-2)N1CCOCC1 (stereo not drawn) | 21 nM
24 | O=C(c1nn(C2CCCN(CCN3CCC(F)CC3)C2)c2c1CS(=O)(=O)c1ccccc1-2)N1CCOCC1 (stereo not drawn) | 34 nM
25 | O=C(c1nn(-c2ccc(CN3CCOCC3)cc2)c2c1CS(=O)(=O)c1cc(F)ccc1-2)N1CCOCC1 | 202 nM
26 | O=C(CC1CCOCC1)N1CCC[C@H](n2nc(C(=O)N3CCOCC3)c3c2-c2ccccc2S(=O)(=O)C3)C1 | 345 nM
27 | O=C(c1nn(C2CCN(CCN3CC[C@@H](F)C3)C2)c2c1CS(=O)(=O)c1ccccc1-2)N1CCOCC1 (stereo partly drawn) | 120 nM
28 | Cc1ccccc1-c1ccc(-n2nc(C(=O)N3CCOCC3)c3c2-c2ccccc2S(=O)(=O)C3)cc1 | 6470 nM
29 | CC1COCCN1Cc1ccc(-n2nc(C(=O)N3CCOCC3)c3c2-c2ccccc2S(=O)(=O)C3)cc1 (stereo not drawn) | 180 nM
30 | COCCNc1ccc2c(c1)S(=O)(=O)Cc1c(C(=O)N3CCOCC3)nn(-c3ccccc3)c1-2 | 6610 nM
31 | O=C(c1nn(-c2cccc(CN3CCC(F)CC3)c2)c2c1CS(=O)(=O)c1ccccc1-2)N1CCOCC1 | 437 nM
32 | CC(C)c1ccc(-n2nc(C(=O)N3CCOCC3)c3c2-c2ccccc2S(=O)(=O)C3)cc1 | 1470 nM
33 | O=C(c1nn(C2CCCN(c3ccccc3)C2)c2c1CS(=O)(=O)c1ccccc1-2)N1CCOCC1 (stereo not drawn) | 468 nM
34 | O=C(c1nn(-c2cccc(Cl)c2)c2c1CS(=O)(=O)c1ccccc1-2)N1CCOCC1 | 440 nM
35 | O=C(c1nn([C@H]2CCCN(CCC3CCOCC3)C2)c2c1CS(=O)(=O)c1ccccc1-2)N1CCOCC1 | 34 nM
36 | Cc1cccc(-n2nc(C(=O)N3CCOCC3)c3c2-c2ccccc2S(=O)(=O)C3)c1 | 926 nM
37 | COc1ccccc1-n1nc(C(=O)N2CCOCC2)c2c1-c1ccccc1S(=O)(=O)C2 | 14800 nM
38 | O=C(c1nn(C2CCCN(CC3CCOC3)C2)c2c1CS(=O)(=O)c1c(F)cccc1-2)N1CCOCC1 (stereo not drawn) | 21 nM
39 | CC(C)(CN1CCOCC1)c1ccc(-n2nc(C(=O)N3CCOCC3)c3c2-c2ccccc2S(=O)(=O)C3)cc1 | 341 nM
40 | O=C(c1nn(C2CCN(CCN3CC(F)(F)C3)C2)c2c1CS(=O)(=O)c1ccccc1-2)N1CCOCC1 (stereo not drawn) | 156 nM
41 | O=C(c1nn(-c2cccc(CN3CC(F)(F)C3)c2)c2c1CS(=O)(=O)c1ccccc1-2)N1CCOCC1 | 643 nM
42 | O=C(c1nn([C@@H]2CCN(CCC3CCOCC3)C2)c2c1CS(=O)(=O)c1c(F)cccc1-2)N1CCOCC1 | 1690 nM
43 | NCCCC1c2c(C(=O)N3CCOCC3)nn(-c3ccccc3)c2-c2ccccc2S1(=O)=O (stereo not drawn) | 4520 nM
44 | CC1(C)CCCC(n2nc(C(=O)N3CCOCC3)c3c2-c2ccccc2S(=O)(=O)C3)C1 (stereo not drawn) | 498 nM

Row | Compound | IC50
45 | Cc1ccc2c(c1)S(=O)(=O)Cc1c(C(=O)N3CCOCC3)nn(-c3ccccc3)c1-2 | 1840 nM
46 | CCOc1ccc2c(c1)S(=O)(=O)Cc1c(C(=O)N3CCOCC3)nn(-c3ccc(CN4CCOCC4)cc3)c1-2 | 250 nM
47 | CN1CCCC1CCn1nc(C(=O)N2CCOCC2)c2c1-c1ccccc1S(=O)(=O)C2 (stereo not drawn) | 1230 nM
48 | CC(C)(C)OC(=O)N1CCC(Cn2nc(C(=O)N3CCOCC3)c3c2-c2ccccc2S(=O)(=O)C3)CC1 | 495 nM
49 | O=C(c1nn(C2CCNC2)c2c1CS(=O)(=O)c1ccccc1-2)N1CCOCC1 (stereo not drawn) | 4640 nM
50 | O=C(c1nn([C@H]2CCCN(CCN3CCCCC3)C2)c2c1CS(=O)(=O)c1ccccc1-2)N1CCOCC1 | 15 nM
51 | O=C(c1cccc(-n2nc(C(=O)N3CCOCC3)c3c2-c2ccccc2S(=O)(=O)C3)c1)N1CCCCC1 | 182 nM
52 | CCc1noc(Cn2nc(C(=O)N3CCOCC3)c3c2-c2ccccc2S(=O)(=O)C3)n1 | 1920 nM
53 | COC(=O)c1ccc(Cn2nc(C(=O)N3CCOCC3)c3c2-c2ccccc2S(=O)(=O)C3)o1 | 431 nM
54 | O=C(c1nn(C2CCN(CCC3CCOCC3)C2)c2c1CS(=O)(=O)c1ccccc1-2)N1CCOCC1 (stereo not drawn) | 280 nM
55 | Nc1ccc2c(c1)S(=O)(=O)Cc1c(C(=O)N3CCOCC3)nn(-c3ccccc3)c1-2 | 1130 nM
56 | O=C(c1nn(CCc2ccccn2)c2c1CS(=O)(=O)c1ccccc1-2)N1CCOCC1 | 1920 nM
57 | COCCN1CCC[C@H](n2nc(C(=O)N3CCOCC3)c3c2-c2cccc(C)c2S(=O)(=O)C3)C1 | 96 nM
58 | COCCOc1cccc(-n2nc(C(=O)N3CCOCC3)c3c2-c2ccccc2S(=O)(=O)C3)c1 | 726 nM
59 | CCn1nc(C(=O)N2CCOCC2)c2c1-c1ccccc1S(=O)(=O)C2 | 601 nM
60 | O=C(c1nn(C2CCCN(CCC(F)(F)F)C2)c2c1CS(=O)(=O)c1ccccc1-2)N1CCOCC1 (stereo not drawn) | 149 nM
61 | CN(C)CCn1nc(C(=O)N2CCOCC2)c2c1-c1ccccc1S(=O)(=O)C2 | 1500 nM
62 | O=C(c1nn([C@@H]2CCCN(C3CCCOC3)C2)c2c1CS(=O)(=O)c1ncccc1-2)N1CCOCC1 (stereo partly drawn) | 2930 nM
63 | O=C(c1nn(C2CCCN(C3CCOCC3)C2)c2c1CS(=O)(=O)c1ccccc1-2)N1CCOCC1 (stereo not drawn) | 254 nM
64 | O=C(c1nn(C2CCN(C3CCOCC3)C2)c2c1CS(=O)(=O)c1ccccc1-2)N1CCOCC1 (stereo not drawn) | 77 nM
65 | O=C(c1nn([C@H]2CCCN(CCN3CCOCC3)C2)c2c1CS(=O)(=O)c1ccccc1-2)N1CCOCC1 | 16 nM
66 | O=C(c1nn(-c2ccccc2)c2c1NS(=O)(=O)c1ccccc1-2)N1CCOCC1 | 5500 nM

Row | Compound | IC50
67 | O=C(c1nn(C2CCCN(CCN3CCCC(F)(F)C3)C2)c2c1CS(=O)(=O)c1ccccc1-2)N1CCOCC1 (stereo not drawn) | 83 nM
68 | O=C(c1nn(-c2ccc(CN3CCCC(F)(F)C3)cc2)c2c1CS(=O)(=O)c1ccccc1-2)N1CCOCC1 | 355 nM
69 | Cn1nc(C(=O)N2CCOCC2)c2c1-c1cc(Br)ccc1S(=O)(=O)C2 | 1040 nM
70 | O=C(c1ccc2c(c1)-c1c(c(C(=O)N3CCOCC3)nn1-c1ccccc1)CS2(=O)=O)N1CCOCC1 | 3030 nM
71 | Cc1noc(-c2cccc(-n3nc(C(=O)N4CCOCC4)c4c3-c3ccccc3S(=O)(=O)C4)c2)n1 | 2690 nM
72 | O=C(c1nn(-c2ccc(CN3CCOCC3)cc2)c2c1CS(=O)(=O)c1ncccc1-2)N1CCOCC1 | 400 nM
73 | O=C(c1nn(-c2ccc(CO)cc2)c2c1CS(=O)(=O)c1ccccc1-2)N1CCOCC1 | 1060 nM
74 | O=C(c1nn(-c2cccc(-c3ncon3)c2)c2c1CS(=O)(=O)c1ccccc1-2)N1CCOCC1 | 6690 nM
75 | Cn1nc(C(=O)N2CCOCC2)c2c1-c1cccc(Br)c1S(=O)(=O)C2 | 1090 nM
76 | COCCN1CCC[C@H](n2nc(C(=O)N3CCOCC3)c3c2-c2ccc(OC)cc2S(=O)(=O)C3)C1 | 93 nM
77 | O=C(c1nn(C2CCCCC2)c2c1CS(=O)(=O)c1ncccc1-2)N1CCOCC1 | 437 nM
78 | O=C(c1nn([C@H]2CCCN(CC3CCOCC3)C2)c2c1CS(=O)(=O)c1ncccc1-2)N1CCOCC1 | 13 nM
79 | O=C(c1nn(-c2ccc(CN3CCC(F)(F)CC3)cc2)c2c1CS(=O)(=O)c1ccccc1-2)N1CCOCC1 | 230 nM
80 | O=C(c1nn(C2CCC(F)(F)CC2)c2c1CS(=O)(=O)c1ccccc1-2)N1CCOCC1 | 386 nM
81 | O=C(c1nn([C@H]2CCCN(C3CCOCC3)C2)c2c1CS(=O)(=O)c1ccccc1-2)N1CCOCC1 | 80 nM
82 | O=C(c1nn(-c2cccc(-c3cccnc3)c2)c2c1CS(=O)(=O)c1ccccc1-2)N1CCOCC1 | 280 nM
83 | COCCN1CCC(n2nc(C(=O)N3CCOCC3)c3c2-c2ccccc2S(=O)(=O)C3)CC1 | 1920 nM
84 | O=C(c1nn(CCc2ccccc2)c2c1CS(=O)(=O)c1ccccc1-2)N1CCOCC1 | 1440 nM
85 | O=C(c1nn([C@H]2CCCN(c3cccnc3)C2)c2c1CS(=O)(=O)c1ccccc1-2)N1CCOCC1 | 48 nM
86 | O=C(c1nn(-c2ccccc2)c2c1CS(=O)(=O)c1ccncc1-2)N1CCOCC1 | 3050 nM
87 | COCCN1CCC(Cn2nc(C(=O)N3CCOCC3)c3c2-c2ccccc2S(=O)(=O)C3)CC1 | 681 nM
88 | COc1cccc2c1S(=O)(=O)Cc1c(C(=O)N3CCOCC3)nn([C@H]3CCCN(CCN4CC(F)(F)C4)C3)c1-2 | 40 nM
